Where two headings read alike, the source gives them in different places.
How the values were obtained:
HT29 cells = assay: Assay III of bioactive molecules on cell viability in vitro (CCK8); assay type: cell-based; conditions: Homo sapiens, HT-29; CCK8, 3-4 days (Assay III); read-out: EC50(nM), killing of HT29 cells
Protocol: (§1) Tumor cells HT29 (having a same source as the above) were first cultured. The bioactive molecules or fragments of the present disclosure were co-cultured with tumor cells, and then CCK8 reagent (Dojindo Laboratories (Shanghai), Cat: CK04, Lot: JJ744) was added, and the activity of dehydrogenase in mitochondria was detected by reading (detection wavelength 450 nm) on a microplate reader (manufacturer: Molecular Devices, model: SpectraMax M2), to evaluate the inhibitory effect of bioactive molecules on cell proliferation.
(§2) In vitro cell viability assay method: the tumor cells were digested by conventional methods using trypsin, and cells in tube were collected and counted, and then resuspended in the corresponding assay media (containing 2% FBS), which was added to a 96-well plate at 5000-10000 cells/well. Bioactive molecules were diluted with DMSO, and then added to a 96-well plate at 100 μL, the initial concentration was 10M, followed by 3-fold serial dilution (12 concentration gradients). The plate was incubated for 3-4 days at 37° C. under 5% CO2. Then, 20 μL of CCK8 reagent was added to each well, and the reaction was carried out for 2-6 h. The plate was read on a microplate reader (detection wavelength was 450 nm).

HT29 = assay: Assay II of bioactive molecules on cell viability in vitro (CCK8); assay type: cell-based; conditions: Homo sapiens, HT-29; CCK8, 3-4 days
Protocol: as §1, with “NUCG-4, PC-9, HT29, NCI-H358, KYSE520, A431 and A549” for “HT29 (having a same source as the above)”, “cultured; the” for “cultured. The”
as §2, with “and then 100 μL was added to” for “and then added to”, “a 96-well plate, the initial” for “a 96-well plate at 100 μL, the initial”, “concentration was 10 μM, followed by” for “concentration was 10M, followed by”

NUCG-4 = assay: as above; assay type: cell-based; conditions: CCK8, 3-4 days
Protocol: as §1, with “NUCG-4, PC-9, HT29, NCI-H358, KYSE520, A431 and A549” for “HT29 (having a same source as the above)”, “cultured; the” for “cultured. The”
as §2, with “and then 100 μL was added to” for “and then added to”, “a 96-well plate, the initial” for “a 96-well plate at 100 μL, the initial”, “concentration was 10 μM, followed by” for “concentration was 10M, followed by”

A431 = assay: as above; assay type: cell-based; conditions: Homo sapiens, A-431; CCK8, 3-4 days
Protocol: as §1, with “NUCG-4, PC-9, HT29, NCI-H358, KYSE520, A431 and A549” for “HT29 (having a same source as the above)”, “cultured; the” for “cultured. The”
as §2, with “and then 100 μL was added to” for “and then added to”, “a 96-well plate, the initial” for “a 96-well plate at 100 μL, the initial”, “concentration was 10 μM, followed by” for “concentration was 10M, followed by”

A549 = assay: as above; assay type: cell-based; conditions: Homo sapiens, CCK8, 3-4 days
Protocol: as §1, with “NUCG-4, PC-9, HT29, NCI-H358, KYSE520, A431 and A549” for “HT29 (having a same source as the above)”, “cultured; the” for “cultured. The”
as §2, with “and then 100 μL was added to” for “and then added to”, “a 96-well plate, the initial” for “a 96-well plate at 100 μL, the initial”, “concentration was 10 μM, followed by” for “concentration was 10M, followed by”

NCI-H358 = assay: as above; assay type: cell-based; conditions: Homo sapiens, CCK8, 3-4 days
Protocol: as §1, with “NUCG-4, PC-9, HT29, NCI-H358, KYSE520, A431 and A549” for “HT29 (having a same source as the above)”, “cultured; the” for “cultured. The”
as §2, with “and then 100 μL was added to” for “and then added to”, “a 96-well plate, the initial” for “a 96-well plate at 100 μL, the initial”, “concentration was 10 μM, followed by” for “concentration was 10M, followed by”

PC-9 = assay: as above; assay type: cell-based; conditions: Homo sapiens, CCK8, 3-4 days
Protocol: as §1, with “NUCG-4, PC-9, HT29, NCI-H358, KYSE520, A431 and A549” for “HT29 (having a same source as the above)”, “cultured; the” for “cultured. The”
as §2, with “and then 100 μL was added to” for “and then added to”, “a 96-well plate, the initial” for “a 96-well plate at 100 μL, the initial”, “concentration was 10 μM, followed by” for “concentration was 10M, followed by”

[1] = human plasma 37° C., ADC 200 μg/mL, A1.9 released from B7H3-ADC-07(DAR8), DXD from B7H3-C1-ADC-21(DAR4)
Protocol: The appropriate concentration of internal standard stock solution was prepared with DMSO, and then acetonitrile or other reagents were used to prepare the appropriate concentration of the internal standard-containing precipitant.
Incubation of sample: the bacteriostatic agent ProClin was added to the plasma of each genera (human, cynomolgus monkey, ICR mouse) and PBS containing 1% BSA, and the final concentration of ProClin was 0.1%, Sterile operations were adopted. 40 μL working solution of test substance and 360 μL of human plasma were mixed to prepare 200 μg/mL of incubation sample. The plate was sealed with a film, and then incubated at 37° C. under 5% CO2 in an incubator, with a shaking speed of 80 times/mm. At 0 h, 4 h, 24 h, 2 d, 3 d, 7 d, 10 d, 14 d, 17 d, 21 d and 28 d, 20 μL of plasma sample was transferred, to which was added 200 μL of precipitant (containing internal standard), and completely mixed to precipitate the proteins.
All samples were subject to protein precipitating, and then centrifuged to collect the supernatant, which was diluted with water, and analyzed by LC-MS/MS.

PANC-1 cells = assay: Assay I of bioactive molecules on cell viability in vitro (CCK8); assay type: cell-based; conditions: Homo sapiens, read-out: EC50(nM), killing of PANC-1 cells
Protocol: as §1, with “cells” for “cells HT29 (having a same source as the above)”, “cultured; the” for “cultured. The”, “molecules” for “molecules or fragments”
(§3) In vitro cell viability assay method: bioactive molecules (12 concentration gradients) were diluted with corresponding assay medium (containing 2% FBS). The tumor cells were digested by conventional methods using trypsin, and cells in tube were collected and counted, then resuspended in the corresponding assay media (containing 2% FBS). The diluted bioactive molecules were added to a 96-well plate, followed by the cells. Then, 20 μL of CCK8 reagent was added to each well, and the reaction was carried out for 4 h, then the plate was read on a microplate reader (detection wavelength was 450 nm). The experimental results are shown in Tables 6.1, 6.2, 6.3, 6.4, and 6.5.

HCC1806 cells = assay: as above; assay type: cell-based; conditions: Homo sapiens, HCC1806, 72 h; 7500 cells/well, 3 days; read-out: EC50(nM), killing of HCC1806 cells
Protocol: as §1, with “cells” for “cells HT29 (having a same source as the above)”, “cultured; the” for “cultured. The”, “molecules” for “molecules or fragments”
as §3

NCl-H322M cells = assay: as above; assay type: cell-based; conditions: Homo sapiens, read-out: EC50(nM), killing of NCl-H322M cells
Protocol: as §1, with “cells” for “cells HT29 (having a same source as the above)”, “cultured; the” for “cultured. The”, “molecules” for “molecules or fragments”
as §3

LS174T cells = assay: as above; assay type: cell-based; conditions: Homo sapiens, read-out: EC50(nM), killing of LS174T cells
Protocol: as §1, with “cells” for “cells HT29 (having a same source as the above)”, “cultured; the” for “cultured. The”, “molecules” for “molecules or fragments”
as §3

[2] = cited from earlier work

Compound: CC[C@@]1(O)C(=O)OCc2c1cc1n(c2=O)Cc2c-1nc1cc(F)c(C)c3c1c2[C@@H](NC(=O)CO)CC3 [DXD, DXd, reference compound]
- EC50 (HT29 cells): 22.9 nM
- EC50 (HT29): 210 nM
- EC50 (NUCG-4): 43.3 nM
- EC50 (A431): 25.1 nM
- EC50 (A549): 262 nM
- EC50 (NCI-H358): 262 nM
- EC50 (PC-9): 16.7 nM
- Release ratio (%) ([1]; day 0): 0.348%
- Release ratio (%) ([1]; day 0.17): 1.786%
- Release ratio (%) ([1]; day 1): 2.765%
- Release ratio (%) ([1]; day 2): 3.603%
- Release ratio (%) ([1]; day 3): 3.763%
- Release ratio (%) ([1]; day 7): 4.116%
- Release ratio (%) ([1]; day 10): 5.126%
- Release ratio (%) ([1]; day 14): 5.786%
- Release ratio (%) ([1]; day 17): 6.446%
- Release ratio (%) ([1]; day 21): 7.494%
- Release ratio (%) ([1]; day 28): 12.659%
- EC50 (PANC-1 cells): 966 nM
- EC50 (HCC1806 cells): 37 nM
- EC50 (NCl-H322M cells): 76.9 nM
- EC50 (LS174T cells): 82 nM

Compound: Trodelvy
- plasma half-life [2]: less than 24 hours
